Reference: US11730714B2, “Compounds for the treatment of neuromuscular disorders” (NMD PHARMA A/S, priority 2017, dated 2023)

What was measured:
isolated rat muscle = assay: Measurement of force in an in vitro model: isolated rat soleus nerve-muscle preparation, 115 nM tubocurarine; format: cell-based; details: 50 μM compound, 40 mins exposure, 115 nM tubocurarine, isolated rat soleus nerve-muscle preparation
Procedure: FIGS. 12A-12B. […] Force traces from a representative muscle stimulated to contract in 1) control condition before addition of neuromuscular blocking agent, 2) the force response to stimulation after 90 minutes incubation with Tubocurarine. […] The traces presented in FIG. 12A (1, 2, 3), correspond to the dotted lines in FIG. 12B, respectively.
Recovery of force is quantified as the percentage of the force prior to tubocurarine that is recovered by the compound.
The current invention relates to compounds that inhibit CIC-1 ion channels and increase muscle excitability and thereby improve muscle function in clinical conditions where muscle activation is failing. Such conditions result in loss of contractile function of skeletal muscle, weakness and excessive fatigue. […]
Experimentally, soleus muscles from 4-5 wk old rats were isolated with the motor nerve remaining attached. […] Stimulation of the motor nerve led to activation of the muscle fibres and ensuing force production that was recorded.
After mounting the nerve-muscle preparation in the experimental setup, the contractile function of the muscle was initially assessed under the control conditions (FIG. 2A). […] To quantify the ability of the compound to restore force the percentage of the initial force that was restored was determined after 40 mins of compound exposure (FIG. 2B) and the point increase is reported in Table 8.

[1] = test system: isolated rat soleus muscles; assay: Recovery of nerve-stimulated force in isolated rat soleus muscles with ACh receptors inhibited by 2 μM rocuronium; format: cell-based; details: 50 μM C8 added after 2 μM rocuronium had reduced force to 51±5%; 8 muscles; p<0.01
Procedure: In a separate series of experiments with 8 isolated rat soleus muscles, ACh receptors were inhibited using 2 μM rocuronium, which is a clinically used neuromuscular blocking agent. Under these conditions the nerve-stimulated force was reduced to 51±5% of force before rocuronium. […] This illustrates the potential of these compounds to be used as reversal agents.

isolated human muscles = format: cell-based; details: 150 μM C8; elevated extracellular K+ and low dose TTX
[2] = test system: isolated rat soleus muscles; assay: Recovery of nerve-stimulated force in isolated rat soleus muscles exposed to 3.5 mM Mg2+; format: cell-based; details: 3.5 mM Mg2+, after 70 min at elevated Mg2+
Procedure: Experiments were performed using rat soleus muscles from either young (4-wk-old) or adult Wistar rats (12-14-week-old). Animal handling, killing and isolation of muscle is described elsewhere All experiments were performed using normal Krebs-Ringer bicarbonate solution (NKR). In solutions with elevated Mg^2+, MgCl2 was added to NKR-solution causing minor increases in osmolarity and ionic strength. In solutions with elevated K^+, 4 mM NaCl was replaced by 4 mM KCl in the NKR.
The aim was to find compounds that by inhibition of CIC-1 channels can recover nerve-stimulated force under conditions of fatigue including conditions where fatigue is caused by compromised neuromuscular transmission. Neuromuscular transmission dysfunction can develop because of both pre- and/or post-synaptic complications in connection with a disorder or as part of neuromuscular blockade during/after surgery. In the initial series of drug testing, experiments were performed with isolated muscles in the presence of sub-maximal ACh receptor antagonist tubocurarine. […] To mimic conditions with pre-synaptic complication (Lambert Eaton syndrome, motor neuron disorder, polyneuropathy) the intact nerve-muscle preparations were incubated at elevated extracellular Mg^2+, which is known to suppress release of ACh from nerve terminals of motor neurons.

rat soleus muscles = assay: Mg2+ concentration required to depress nerve-stimulated force by 50% (Kd,Mg2+), combination with 3,4-AP; format: cell-based; details: combination of C8 and 3,4-diaminopyridine; elevated extracellular Mg2+
Procedure: FIGS. 6A-6E. […] Muscles from 4-week-old rats were stimulated to contract by activating the motor nerve with short duration pulses in field stimulation. Muscles contracted every 10 min for 2 s in response to 30 Hz stimulation. Four different experimental conditions were used. […] C) similar to A) but this muscle had been pre-incubated with 3,4-AP. […] The force integral (AUC) was determined at each extracellular Mg^2+ concentration. AUC was plotted against Mg^2+ concentration and the data was fitted to a sigmoidal function. This provided the extracellular Mg^2+ concentration that was required to reduce the nerve-stimulated force to 50% (Mg50) under the four different conditions (see Table 5).
While the use of tubocurarine mimics conditions with reduced neuromuscular transmission due to post-synaptic dysfunction (myasthenia gravis, neuromuscular blockade), the experiments with elevated extracellular Mg^2+ mimics conditions with pre-synaptic dysfunction akin to a range of neuromuscular disorders including Lambert Eaton syndrome, motor neuron disorders and polyneuropathy. […] Based on this it was determined whether recovery of nerve-stimulated force at elevated extracellular Mg^2+ with CIC-1 inhibiting compounds could be added to force recovery with 3,4-AP. […] To quantify the effect of compounds on Mg^2+ sensitivity the force at the different Mg^2+ concentrations was determined. […]

[3] = test system: rats injected with tubocurarine; assay: Rotarod running performance of rats after I.P. tubocurarine (myasthenia-like phenotype); format: in vivo, rat; details: C8 20 mg/kg I.P. 2 hrs before tubocurarine 0.13 mg/kg I.P.; tested 21 min after tubocurarine; sham around 2%
Procedure: FIGS. 9A-9B. […] FIG. 9A illustrates the design of the experiments. Prior to Day One the animals had been familiarized to the rotarod in three training sessions distributed over two days.
In both series of experiments, running performance was tested on a rotarod using a protocol where the rod was accelerated gradually over a 5 min period, and the running time and covered distance before falling off the rod were measured. […] Experiments with tubocurarine were carried out over two days, and on each day the effect of tubocurarine on running performance was tested. On the first day only tubocurarine was injected. […] On the second day, the animals were first allowed to run on the rotarod, and all animals performed normally. […] The allocation of the animals into the two groups (C8 or sham) was random and unknown to the experimenter (blinded experimental design).
In the first series of in vivo experiments, myasthenia gravis was simply mimicked by I.P. injection of tubocurarine (0.13 mg/kg) in animals that had been familiarized to running on the rotarod. On the first of two consecutive days, tubocurarine was injected I.P. and the running performance of the animal was tested 21 minutes after this injection. On the second day of experimentation, the animals first performed a test run to ensure that they were no longer affected by the tubocurarine injected the day before. […]

Compound: (2S)-2-(4-bromophenoxy)(2-^2H)butanoic acid [Compound A-60]
- Point increase (%) of initial force that was restored (isolated rat muscle): 62%

Compound: C[C@H](Oc1ccc(Br)cc1)C(=O)O [Compound C8, (2S)-2-(4-bromophenoxy)propanoic acid]
- nerve-stimulated contractile force recovered to % of force before rocuronium [1]: 81±4%
- contractile force (isolated human muscles): markedly recovery
- 50 μM % change after addition (AUC of nerve-stimulated force) ([2]; 50 μM compound): 13 ± 4%
- 100 μM % change after addition (AUC of nerve-stimulated force) ([2]; 100 μM compound): 26 ± 5%
- effect on recovery of neuromuscular transmission (rat soleus muscles): unexpected synergistic effect
- increase in running performance on the second day vs the first day (rotarod) [3]: around 150%
